In PubChem BioAssay (NCI):
Values joined by “and” are separate entries in the source; they are usually repeats but may differ in a detail not shown here. Identical values can stand only once.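 Growth conditions: 96-well plates. Treatment: test compound, 48 hours, 5 concentrations. Analysis: linear interpolation between bracketing concentrations; unreached endpoints set to highest concentration. GI50 = concentration required for 50% inhibition of growth. TGI denotes the concentration required for complete inhibition of growth.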

What was measured:
Experiment in all cases: inhibition of tumour cell growth, NCI panel, 48 h
A549 NSCLC = tested on: A549 NSCLC
ACHN renal = tested on: ACHN renal
BT-549 breast = tested on: BT-549 breast
MDA-MB-231 breast = tested on: MDA-MB-231 breast
NCI-H23 lung = tested on: NCI-H23 lung
OVCAR-4 ovarian = tested on: OVCAR-4 ovarian
SF-295 CNS = tested on: SF-295 CNS
SNB-19 CNS = tested on: SNB-19 CNS
T-47D breast = tested on: T-47D breast
SNB-75 CNS = tested on: SNB-75 CNS

| Compound | GI50 (A549 NSCLC) [µM] | TGI (A549 NSCLC) | GI50 (ACHN renal) [nM] | TGI (ACHN renal) | GI50 (BT-549 breast) [µM] | TGI (BT-549 breast) [µM] | GI50 (MDA-MB-231 breast) [µM] | TGI (MDA-MB-231 breast) [µM] | GI50 (NCI-H23 lung) [nM] | TGI (NCI-H23 lung) | GI50 (OVCAR-4 ovarian) [µM] | TGI (OVCAR-4 ovarian) | GI50 (SF-295 CNS) [nM] | TGI (SF-295 CNS) | GI50 (SNB-19 CNS) [nM] | TGI (SNB-19 CNS) | GI50 (T-47D breast) [µM] | TGI (T-47D breast) [µM] | TGI (SNB-75 CNS) | GI50 (SNB-75 CNS) [nM] |
| --- | --- | --- | --- | --- | --- | --- | --- | --- | --- | --- | --- | --- | --- | --- | --- | --- | --- | --- | --- | --- |
| O=C1/C(=C/c2ccccc2)SC(=Nc2ccccc2)N1Nc1ccccc1 | 12 | > 100 µM | 23000 | > 100 µM | 6.51 | 35.7 | 18.7 | > 100 | 22600 | > 100 µM | 7.96 | > 100 µM | 16300 | > 100 µM | 13500 | > 100 µM | 5.41 | > 100 | – | – |
| C=C(CN(CC(=C)C(=O)c1ccccc1)C(C)(C)C)C(=O)c1ccccc1 | – | > 77.7 µM | – | 21.3 µM | – | – | – | – | – | 32.7 µM | – | 29.3 µM | – | > 54.2 µM | – | > 59.9 µM | – | – | 17.6 µM | – |
| CC1C=C(OC(=O)c2ccccc2)C(=O)C(n2cc(F)c(=O)n(C(=O)c3ccccc3)c2=O)O1 (stereo not given) | – | > 100 µM | – | > 100 µM | – | – | – | – | – | > 100 µM | – | > 100 µM | – | > 100 µM | – | > 100 µM | – | – | 91.9 µM | – |
| Cn1cc2c(n1)c(N/N=C/c1ccccc1)nn1nnnc21 | – | > 100 µM | – | > 100 µM | – | – | – | – | – | > 100 µM | – | > 100 µM | – | > 100 µM | – | > 100 µM | – | – | > 100 µM | – |
| CCCCn1c2c(c3ccccc3c1=O)C(=O)c1ccccc1-2 | – | > 100 µM | – | – | – | > 100 | – | > 100 | – | > 100 µM | – | 38.4 µM | – | > 100 µM | – | – | – | > 100 | > 100 µM | – |
| CCC(=O)OC1CCn2c1nc1c2C(=O)C(C)=C(N2CC2)C1=O (stereo not given) | 0.0233 | – | 19.5 | 0.0491 µM and 0.411 µM | – | 0.192 | – | 3.32 | 23.5 | 0.0821 µM and 0.0948 µM | 0.293 | 0.291 µM and 0.667 µM | 31.5 | 1.08 µM and 0.151 µM | 44.1 | 1.16 µM and 0.697 µM | – | – | 0.0957 µM and 0.0544 µM | 22.3 |
| N/N=C1\c2ccccc2C2/C(=N\N)c3ccccc3C12 (stereo not given) | – | > 100 µM | – | > 100 µM | – | – | – | – | – | > 100 µM | – | > 100 µM | – | > 100 µM | – | > 100 µM | – | – | > 100 µM | – |
| CCOc1ccccc1NC(=O)CCc1nnc2s/c(=C\CCc3ccccc3)c(=O)n12 | – | > 100 µM | – | > 100 µM | – | – | – | – | – | > 100 µM | – | > 100 µM | – | > 100 µM | – | > 100 µM | – | – | > 100 µM | – |
| Cc1ccc(S(=O)(=O)N2CCC3(C(/C=C/c4ccccc4)=Nc4ccccc43)C2c2ccccc2)cc1 (stereo not given) | – | > 100 µM | – | > 100 µM | – | – | – | – | – | > 100 µM | – | > 100 µM | – | > 100 µM | – | > 100 µM | – | – | > 100 µM | – |
| CC1CCCC(C(O)CC2CC(=O)N(c3ccccc3)C(=O)C2)C1=O (stereo not given) | – | > 100 µM | – | > 100 µM | – | – | – | – | – | > 100 µM | – | > 100 µM | – | > 100 µM | – | > 100 µM | – | – | > 100 µM | – |
| C=CCNC1=C(C(=O)OCC)C(=O)CO1 | – | > 100 µM | – | > 100 µM | – | – | – | – | – | > 100 µM | – | > 100 µM | – | > 100 µM | – | > 100 µM | – | – | > 100 µM | – |
| C/C(=N\NC(=O)CC(=O)Nc1ccc(Cl)cc1)c1cc2ccccc2oc1=O | – | > 100 µM | – | > 100 µM | – | – | – | – | – | > 100 µM | – | – | – | > 100 µM | – | > 100 µM | – | – | > 100 µM | – |
| CN(C)CCNC(=O)c1cccc2cc3ccccc3nc12 | – | – | 437 | 2.85 µM | 2.41 | 10.8 | 2.35 | 9.65 | 1800 | 5.13 µM | 2.11 | 4.99 µM | 1260 | 4.62 µM | 2210 | > 21.6 µM | 1.95 | 10.6 | 6.22 µM | 2010 |
| Cc1ccc(N=C2CSc3nnc(-c4csc5c4CCCC5)n3N2)cc1 | 0.265 | > 50 µM | 2940 | > 50 µM | 0.458 | > 50 | 0.369 | > 50 | 295 | > 50 µM | > 50 | > 50 µM | 148 | 14 µM | 222 | > 50 µM | – | – | 17.2 µM | 130 |
| CN(C)c1ccc(/C=C2\CNC/C(=C\c3ccc(N(C)C)cc3)C2=O)cc1 | – | 56.5 µM | – | 54 µM | – | – | – | – | – | > 100 µM | – | 29.7 µM | – | > 100 µM | – | – | – | – | 27.2 µM | – |
| Cc1c(O)c(=O)ccn1C1OC(CO)C(O)C1O (stereo not given) | – | > 100 µM | – | > 100 µM | – | – | – | – | – | – | – | > 100 µM | – | > 100 µM | – | > 100 µM | – | – | > 100 µM | – |
| CC(=O)OCC1OC(OC2CC3C(C)(C)C(OC(C)=O)CC[C@]3(C)C3CCC45CC4(CC[C@H]5C(C)CC(O)C4OC4(C)C)[C@]23C)C(O)C(O)C1O (stereo not given in full) | 4.26 | 8.37 µM and 15.2 µM | 3440 | 7.28 µM and 11.7 µM | – | – | – | – | 2550 | 10.4 µM and 6.58 µM | 15.3 | 6.27 µM and 38.9 µM | 3340 | 5.5 µM and 11 µM | 4970 | 12.4 µM and 17.6 µM | – | – | 8.23 µM and 12.4 µM | 3700 |
| Cn1ccc(=Nc2ccc(NC(=O)c3ccc(N=c4ccn(C)c5ccc([N+](=O)[O-])cc45)cc3)cc2)cc1 | 7.31 | > 100 µM | > 100000 | > 100 µM | 71.5 | > 100 | 6.82 | > 100 | 43900 | > 100 µM | – | – | 12800 | 72.6 µM | 923 | > 100 µM | 5.27 | > 100 | 28.5 µM | 3630 |
| O=C1CC2CCCCC2=C1O (stereo not given) | – | > 100 µM | – | > 100 µM | – | – | – | – | – | > 100 µM | – | > 100 µM | – | > 100 µM | – | > 100 µM | – | – | > 100 µM | – |
| O=C(CC/C(C/C(=N/O)c1ccc(F)cc1)=N/O)N(Cc1ccccc1)Cc1ccccc1 | – | > 100 µM | – | > 100 µM | – | – | – | – | – | > 100 µM | – | > 100 µM | – | > 100 µM | – | > 100 µM | – | – | > 100 µM | – |
| CCOP(=O)(CC(=O)C1=C(O)C(CCCNC(=O)OC(C)(C)C)N(Cc2ccc(OC)c(OC)c2)C1=O)OCC (stereo not given) | – | > 100 µM | – | > 100 µM | – | – | – | – | – | > 100 µM | – | > 100 µM | – | > 100 µM | – | > 100 µM | – | – | > 100 µM | – |
| Cc1ccc(S(=O)(=O)CNC(=S)CCCC(=S)NCS(=O)(=O)c2ccc(C)cc2)cc1 | – | > 100 µM | – | – | – | – | – | – | – | > 100 µM | – | > 100 µM | – | > 100 µM | – | > 100 µM | – | – | > 100 µM | – |
